In US12083101B2, “Biaryl derivatives as YAP/TAZ-TEAD protein-protein interaction inhibitors” (Novartis AG, priority 2020, dated 2024):
Like-named read-outs stand apart in the source and are kept apart here.

Legend:
[1] = system: NCI-H2052 Tet-On shYAP_2371 pLenti6 MCAT_Luc cells; test: Proliferation assay (resazurin), NCI-H2052; assay type: cell-based; settings: 72 hours incubation
Method in brief: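 The NCI-H2052 line carries a Tet-inducible shRNA against the YAP1 3′UTR and an MCAT luciferase reporter. The day after seeding, it received eleven 2-fold compound dilutions at 0.1% DMSO, and viability was read by resazurin fluorescence.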

[2] = system: NCI-H2052 Tet-On shYAP_2371 pLenti6 MCAT_Luc cells (YAP-dependent transcription); test: YAP reporter gene activity assay (MCAT-luciferase), NCI-H2052; assay type: cell-based; settings: 24 hours incubation, BrightGlo luminescence
Method in brief: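 Luminescence was read 5 min after BrightGlo, following 24 h at 37 °C of compound exposure (eleven 2-fold dilutions, DMSO normalized to 0.1%). Cells were NCI-H2052 with a YAP-responsive MCAT-luciferase and a Tet-inducible shRNA against YAP1 3′UTR. Cell-free background was removed, values were normalized to vehicle, and IC50 was fitted with four parameters.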

[3] = molecular target: His-humanTEAD4 217-434 / N-biotinylated YAP 60-100 (Homo sapiens (Human), UniProt Q15561); test: TR-FRET YAP-TEAD4 biochemical assay, alternative format; assay type: binding; settings: alternative format, marked with star *); 5 nM His-humanTEAD4 217-434, 10 nM N-biotinylated YAP 60-100
Protocol: […] Compounds were dissolved at 10 mM in 100% DMSO and serial dilutions were made in 100% DMSO. The diluted compound solutions were incubated in white 384-well plates (Greiner Bio-One) for 1 h at room temperature with the above described mix. The final DMSO concentration present in the assay was 1%. […] The IC50 values were estimated by fitting the data by nonlinear fit regression (GraphPad Prism).

MKN-45/Ubc-luc cells [4] = test: Reporter gene specificity control (Ubc-luciferase), MKN-45
MKN-45/Ubc-luc cells [5] = test: Proliferation assay (resazurin), MKN-45; assay type: cell-based; settings: 72 hours incubation
[6] = molecular target: Avi-humanTEAD4 217-434 / Cy5 labeled humanYAP 60-100 (Homo sapiens (Human), UniProt Q15561); test: TR-FRET YAP-TEAD4 in-vitro biochemical assay; assay type: binding; settings: 1 nM Avi-humanTEAD4 217-434, 20 nM Cy5-humanYAP 60-100, 1 h room temperature
[7] = Homo sapiens, MKN-45, 24 h, read-out: Reporter gene assay MKN-45 IC50 [μM], MKN-45/Ubc-luc cells (YAP deleted, specificity control), 24 hours incubation
[8] = read-out: Reporter gene assay MKN-45 IC50, MKN-45/Ubc-luc cells (YAP deleted, specificity control), 24 hours incubation

Sequence of His-humanTEAD4 217-434 / N-biotinylated YAP 60-100 (Q15561 217-434): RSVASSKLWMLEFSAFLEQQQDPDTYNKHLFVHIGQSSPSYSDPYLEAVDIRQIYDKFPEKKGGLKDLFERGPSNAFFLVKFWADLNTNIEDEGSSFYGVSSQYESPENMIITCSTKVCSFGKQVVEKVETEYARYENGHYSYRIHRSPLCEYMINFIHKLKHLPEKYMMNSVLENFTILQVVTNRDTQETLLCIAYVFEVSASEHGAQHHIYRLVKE
Sequence of Avi-humanTEAD4 217-434 / Cy5 labeled humanYAP 60-100 (Q15561 217-434): as above

Structure (SMILES)	GI50 ([1]; Homo sapiens, NCI-H2052, 72 h) [nM]	IC50 ([2]; Homo sapiens, NCI-H2052, 24 h) [nM]	IC50 [3] [nM]	IC50 (MKN-45/Ubc-luc cells [4]; [7]) [µM]	GI50 (MKN-45/Ubc-luc cells [5]; Homo sapiens) [nM]	GI50 [1] [nM]	IC50 [2] [nM]	IC50 (MKN-45/Ubc-luc cells [4]; [8]) [µM]	GI50 (MKN-45/Ubc-luc cells [5]) [nM]	IC50 [6] [nM]
NC[C@@]1(c2ccccc2)Cc2c(cc(F)c(Cl)c2-c2c(F)cccc2C(N)=O)O1 [Example 32a, 2-((2S,4S)-2-(Aminomethyl)-5-chloro-6-fluoro-2-phenyl-2,3-dihydrobenzofuran-4-yl)-3-fluorobenzamide]	833	498	33	> 10	6120					
NC(=O)c1cccc(F)c1-c1c(Cl)ccc2c1C[C@@](CN[C@H]1CC[C@@H](C(N)=O)CC1)(c1ccccc1)O2 (relative stereo) [Example 138b, 2-((2S,4S)-2-((((cis)-4-carbamoylcyclohexyl)amino)methyl)-5-chloro-2-phenyl-2,3-dihydrobenzofuran-4-yl)-3-fluorobenzamide]			18			435	221	7.63	> 10000	
NC(=O)c1cccc(F)c1-c1c(Cl)ccc2c1C[C@@](CN[C@H]1CC[C@H](C(N)=O)CC1)(c1ccccc1)O2 (relative stereo) [Example 138a, 2-((2S,4S)-2-((((Trans)-4-carbamoylcyclohexyl)amino)methyl)-5-chloro-2-phenyl-2,3-dihydrobenzofuran-4-yl)-3-fluorobenzamide]			18			366	239	> 20	> 13300	
CNC[C@]1(c2ccccc2)Oc2cc(F)c(Cl)c(-c3c(C(N)=O)ccc(OC)c3F)c2[C@@H]1C (atropisomer, axis not shown) [Example 144, 2-((2S,3S,4S)-5-Chloro-6-fluoro-3-methyl-2-((methylamino)methyl)-2-phenyl-2,3-dihydrobenzofuran-4-yl)-3-fluoro-4-methoxybenzamide]	10	10		> 8	> 8000					2
COCCOc1ccc(C(N)=O)c(-c2c(Cl)c(F)cc3c2C[C@@](CN)(c2ccccc2)O3)c1F (atropisomer, axis not shown) [Example 37, 2-((2S,4S)-2-(aminomethyl)-5-chloro-6-fluoro-2-phenyl-2,3-dihydrobenzofuran-4-yl)-3-fluoro-4-(2-methoxyethoxy)benzamide]	52	33		> 10	> 10000					2
COc1ccc(C(N)=O)c(-c2c(Cl)ccc3c2C[C@@](CN[C@H]2CC[C@H](O)CC2)(c2ccccc2)O3)c1F (relative stereo) [Example 27a, 2-((2S,4S)-5-Chloro-2-(((trans-4-hydroxycyclohexyl)amino)methyl)-2-phenyl-2,3-dihydrobenzofuran-4-yl)-3-fluoro-4-methoxybenzamide]						81	26	> 10	> 10000	1
